Measurements taken from US8765762B2, “Pyrazolopyridazines and methods for treating retinal-degerative diseases and hearing loss associated with usher syndrome” (Usher III Initiative, priority 2012, dated 2014).

Test system: N48K Clarin-1
Test: Restoration of expression of N48K Clarin-1 (24 hour incubation), Example 20
Assay type: cell-based
Conditions: HEK293-Clarin-1 N48K-HA D9 cell line; 24 hr incubation with compound; HA-Clarin-1 staining per cell
Description: Assay Method Showing Activity of Compounds of the Invention that Restore Expression of N48K Clarin-1 (24 Hour Incubation)
Clarin-1 is the protein encoded by the gene mutated in Usher III Syndrome (Adato et al., 2002). The most prevalent mutation in Clarin-1 in North America is N48K, which is reported to cause loss of glycosylation and a trafficking defect (Tian et al., 2009). […] Thus it is believed that restoring the trafficking of N48K Clarin-1 to the cell surface provides an avenue of intervention for Usher III Syndrome. […]
The HA-tagged N48K Clarin-1 was detected with an antibody against the HA tag (HA.11 Clone 16B12 Monoclonal antibody, Covance #MMS-101P) at a dilution of 1:1000 in PBS containing Triton X-100. […] The imaging of the stained cells was performed on an InCell 1000 High Content Imager (GE Healthcare), reading out the Cy3 channel for N48K Clarin-1 and the DAPI channel for nuclei. The images were analyzed and quantitated using a specific algorithm. This algorithm measured the HA-Clarin-1 staining for each cell based on the additional nuclear segmentation of the DAPI signal (FIG. 1). This algorithm measured the intensity per cell, and thus it is less sensitive for variation in cell number. Per well, approximately 2,000 cells were measured to achieve an average density per cell measurement.

IC50: < 2000 nM
SMILES: O=C(Cn1nc(-c2ccccc2)c2c(Cl)c(-c3cccc(F)c3)nnc21)N1CCCC1 [Compound 11, 2-[4-chloro-5-(3-fluorophenyl)-3-phenyl-pyrazolo[3,4-c]pyridazin-1-yl]-1-pyrrolidin-1-yl-ethanone]
